From ChEMBL document CHEMBL6153020, “Identification of Isoliensinine as a Ferroptosis Suppressor with Iron-Chelating Activity” (J Nat Prod, 2025)
Active and inactive are the calls of the source. The rule behind the calls is not given here.

Columns and labels:
[1] = Toxicity in C57BL/6 mouse assessed as change in ALT level in serum at 10 mg/kg, ip pretreated with iron sulfate for 8 hrs followed by compound administered for 30 min by automatic biochemical analyzer; type: organism-based; details: in vivo, 30 h
HT-1080 [2] = test: Anti-ferroptosis activity against RSL3-induced ferroptosis in human HT-1080 cells assessed as increase in cell viability at 10 uM incubated for 24 hrs by CCK-8 assay; type: functional, cell-based
HT-1080 [3] = test: Anti-ferroptosis activity against FINO2-induced ferroptosis in human HT-1080 cells assessed as reduction in Fe2+ oxidation level at 5 uM by colorimetric method; type: functional, cell-based
HT-1080 [4] = test: Anti-ferroptosis activity against RSL3-induced ferroptosis in human HT-1080 cells assessed as restoration of lipid peroxidation level by BODIPY 581/591 C11 dye based flow cytometry analysis; type: functional, cell-based
HT-1080 [5] = test: Anti-ferroptosis activity against FeCl3/8HQ-induced ferroptosis in human HT-1080 cells assessed as increase in cell viability at 1 to 50 uM incubated for 24 hrs by cell counting kit 8 method; type: functional, cell-based; details: dose 1-50 µM
HT-1080 [6] = test: Anti-ferroptosis activity against IKE-induced ferroptosis in human HT-1080 cells assessed as increase in cell viability at 10 uM incubated for 24 hrs by SYTOX Green staining based light microscopy analysis; type: functional
Mus musculus [7] = test: Protection against acute iron overload in male C57BL/6 mouse model assessed as reduction in hepatic FTL level at 10 mg/kg, ip pretreated with iron sulfate for 8 hrs followed by compound administered for 30 min by Western blot analysis; type: functional, organism-based
HT-1080 [8] = test: Anti-ferroptosis activity against FeSO4/8HQ-induced ferroptosis in human HT-1080 cells assessed as reduction in total iron level at 5 uM by live-cell fluorescent imaging; type: functional, cell-based
HT-1080 [9] = test: Anti-ferroptosis activity against RSL3-induced ferroptosis in human HT-1080 cells assessed as protection against cell death at 10 uM incubated for 24 hrs by SYTOX Green staining based light microscopy analysis; type: functional
HT-1080 [10] = test: Anti-ferroptosis activity against MnCl2-induced ferroptosis in human HT-1080 cells assessed as increase in cell viability at 5 uM incubated for 24 hrs by cell counting kit 8 method; type: functional, cell-based
HT-1080 [11] = test: Anti-ferroptosis activity against FeCl3/8HQ-induced ferroptosis in human HT-1080 cells assessed as increase in cell viability at 5 uM incubated for 24 hrs by cell counting kit 8 method; type: functional, cell-based
HT-1080 [12] = test: Anti-ferroptosis activity against IKE-induced ferroptosis in human HT-1080 cells assessed as effect on GSH/GSSG ratio at 5 uM; type: functional, cell-based
HT-1080 [13] = test: Anti-ferroptosis activity against IKE-induced ferroptosis in human HT-1080 cells assessed as inhibition of lipid peroxidation level at 5 uM by BODIPY 581/591 C11 dye based flow cytometry analysis; type: functional, cell-based
HT-1080 [14] = test: Anti-ferroptosis activity against FeSO4/8HQ-induced ferroptosis in human HT-1080 cells assessed as reduction in MDA level at 5 uM; type: functional, cell-based
HT-1080 [15] = test: Anti-ferroptosis activity against FINO2-induced ferroptosis in human HT-1080 cells assessed as reduction in total iron level at 5 uM by live-cell fluorescent imaging; type: functional, cell-based
HT-1080 [16] = test: Anti-ferroptosis activity against RSL3-induced ferroptosis in human HT-1080 cells assessed as upregulation of PTGS2 mRNA expression by qPCR analysis; type: functional, cell-based
[17] = Toxicity in C57BL/6 mouse assessed as change in LDH level in serum at 10 mg/kg, ip pretreated with iron sulfate for 8 hrs followed by compound administered for 30 min by automatic biochemical analyzer; type: organism-based; details: in vivo, 30 h
HT-1080 [18] = test: Anti-ferroptosis activity against FINO2-induced ferroptosis in human HT-1080 cells assessed as decrease in cell death at 5 uM incubated for 24 hrs by SYTOX Green staining based light microscopy analysis; type: functional
HT-1080 [19] = test: Anti-ferroptosis activity against RSL3-induced ferroptosis in human HT-1080 cells assessed as reduction in GPX4 level at 5 uM by Western blot analysis; type: functional, cell-based
HT-1080 [20] = test: Anti-ferroptosis activity against IKE-induced ferroptosis in human HT-1080 cells assessed as effect on GSH level at 5 uM; type: functional, cell-based
HT-1080 [21] = test: Anti-ferroptosis activity against RSL3-induced ferroptosis in human HT-1080 cells assessed as increase in cell viability at 5 uM incubated for 24 hrs by cell counting kit 8 method; type: functional, cell-based
HT-1080 [22] = test: Anti-ferroptosis activity against FINO2-induced ferroptosis in human HT-1080 cells assessed as increase in cell viability at 1 to 50 uM incubated for 24 hrs by cell counting kit 8 method; type: functional, cell-based; details: dose 1-50 µM
HT-1080 [23] = test: Anti-ferroptosis activity against FINO2-induced ferroptosis in human HT-1080 cells assessed as upregulation of PTGS2 mRNA level at 5 uM by qPCR analysis; type: functional, cell-based
HT-1080 [24] = test: Anti-ferroptosis activity against RSL3-induced ferroptosis in human HT-1080 cells assessed as reduction in MDA level; type: functional, cell-based
Mus musculus [25] = test: Protection against acute iron overload in male C57BL/6 mouse model assessed as reduction in spleen iron content at 10 mg/kg, ip pretreated with iron sulfate for 8 hrs followed by compound administered for 30 min by Perls Prussian blue staining; type: functional, organism-based
Mus musculus [26] = test: Protection against acute iron overload in male C57BL/6 mouse model assessed as reduction in hepatic FTH level at 10 mg/kg, ip pretreated with iron sulfate for 8 hrs followed by compound administered for 30 min by Western blot analysis; type: functional, organism-based
HT-1080 [27] = test: Anti-ferroptosis activity against FeSO4/8HQ-induced ferroptosis in human HT-1080 cells assessed as reduction in Fe2+ level at 5 uM by FerroOrange staining based live-cell fluorescent imaging; type: functional
HT-1080 [28] = test: Anti-ferroptosis activity against FeSO4/8HQ-induced ferroptosis in human HT-1080 cells assessed as increase in cell viability at 1 to 10 uM incubated for 24 hrs by cell counting kit 8 method; type: functional, cell-based; details: dose 1-10 µM
[29] = Antioxidant activity assessed as ABTS radical scavenging activity at 5 uM by ABTS method; type: functional
HT-1080 [30] = test: Anti-ferroptosis activity against RSL3-induced ferroptosis in human HT-1080 cells assessed as increase in cell viability at 10 uM incubated overnight in the presence of ML385 by cell counting kit 8 method; type: functional, cell-based
HT-1080 [31] = test: Anti-ferroptosis activity against RSL3-induced ferroptosis in human HT-1080 cells assessed as reduction in ROS level by DCFH-DA dye based analysis; type: functional, cell-based
HT-1080 [32] = test: Anti-ferroptosis activity against FeCl3/8HQ-induced ferroptosis in human HT-1080 cells assessed as reduction in total iron level at 5 uM by live-cell fluorescent imaging; type: functional, cell-based
[33] = Toxicity in C57BL/6 mouse assessed as change in CK level in serum at 10 mg/kg, ip pretreated with iron sulfate for 8 hrs followed by compound administered for 30 min by automatic biochemical analyzer; type: organism-based; details: in vivo, 30 h
HT-1080 [34] = test: Anti-ferroptosis activity against FeCl3/8HQ-induced ferroptosis in human HT-1080 cells assessed as reduction in MDA level at 5 uM; type: functional, cell-based
Mus musculus [35] = test: Protection against male acute iron overload C57BL/6 mouse model assessed as reduction in hepatic iron content at 10 mg/kg, ip pretreated with iron sulfate for 8 hrs followed by compound administered for 30 min; type: functional, organism-based
Mus musculus [36] = test: Anti-ferroptotic activity against acute iron overload in male C57BL/6 mouse model assessed as reduction in MDA level in liver at 10 mg/kg, ip pretreated with iron sulfate for 8 hrs followed by compound administered for 30 min; type: functional, organism-based
HT-1080 [37] = test: Anti-ferroptosis activity against FINO2-induced ferroptosis in human HT-1080 cells assessed as reduction in MDA level at 5 uM; type: functional, cell-based
HT-1080 [38] = test: Anti-ferroptosis activity against IKE-induced ferroptosis in human HT-1080 cells assessed as increase in cell viability at 1 to 50 uM incubated for 24 hrs by cell counting kit 8 method; type: functional, cell-based; details: dose 1-50 µM
HT-1080 [39] = test: Anti-ferroptosis activity against ZnCl2-induced ferroptosis in human HT-1080 cells assessed as increase in cell viability at 5 uM incubated for 24 hrs by cell counting kit 8 method; type: functional, cell-based
[40] = Toxicity in C57BL/6 mouse assessed as change in AST level in serum at 10 mg/kg, ip pretreated with iron sulfate for 8 hrs followed by compound administered for 30 min by automatic biochemical analyzer; type: organism-based; details: in vivo, 30 h
Mus musculus [41] = test: Protection against acute iron overload in male C57BL/6 mouse model assessed as reduction in liver iron content at 10 mg/kg, ip pretreated with iron sulfate for 8 hrs followed by compound administered for 30 min by Perls Prussian blue staining; type: functional, organism-based
Mus musculus [42] = test: Anti-ferroptotic activity against acute iron overload in male C57BL/6 mouse model assessed as reduction in […] mRNA expression level in liver at 10 mg/kg, ip pretreated with iron sulfate for 8 hrs followed by compound administered for 30 min by qPCR analysis; type: functional, organism-based
HT-1080 [43] = test: Anti-ferroptosis activity against FINO2-induced ferroptosis in human HT-1080 cells assessed as increase in cell viability at 20 uM incubated overnight by cell counting kit 8 method; type: functional, cell-based
HT-1080 [44] = test: Anti-ferroptosis activity against RSL3-induced ferroptosis in human HT-1080 cells assessed as increase in cell viability at 50 uM incubated for 24 hrs by cell counting kit 8 method; type: functional, cell-based

## COc1ccc(C[C@@H]2c3cc(Oc4cc(C[C@@H]5c6cc(O)c(OC)cc6CCN5C)ccc4O)c(OC)cc3CCN2C)cc1 [ISOLIENSININE]
[1]
  Activity: Non-toxic
HT-1080 [2]
  Activity: Active; Strong Protection
HT-1080 [3]
  Activity: Active
HT-1080 [4]
  Activity: Active
HT-1080 [5]
  Activity: Active
HT-1080 [6]
  Activity: Active
Mus musculus [7]
  Activity: Active
HT-1080 [8]
  Activity: Active
HT-1080 [9]
  Activity: Active
HT-1080 [10]
  Activity: inactive
HT-1080 [11]
  Activity: inactive
HT-1080 [12]
  Activity: Active
HT-1080 [13]
  Activity: Active
HT-1080 [14]
  Activity: Active
HT-1080 [15]
  Activity: Active
HT-1080 [16]
  Activity: Active
[17]
  Activity: Non-toxic
HT-1080 [18]
  Activity: Active
HT-1080 [19]
  Activity: inactive
HT-1080 [20]
  Activity: Active
HT-1080 [21]
  Activity: Active
HT-1080 [22]
  Activity: Active
HT-1080 [23]
  Activity: Active
HT-1080 [24]
  Activity: Active
Mus musculus [25]
  Activity: Active
Mus musculus [26]
  Activity: Active
HT-1080 [27]
  Activity: Active
HT-1080 [28]
  Activity: Active
[29]
  Activity: inactive
HT-1080 [30]
  Activity: Active
HT-1080 [31]
  Activity: Active
HT-1080 [32]
  Activity: Active
[33]
  Activity: Non-toxic
HT-1080 [34]
  Activity: Active
Mus musculus [35]
  Activity: Active
Mus musculus [36]
  Activity: Active
HT-1080 [37]
  Activity: Active
HT-1080 [38]
  Activity: Active
HT-1080 [39]
  Activity: inactive
[40]
  Activity: Non-toxic
Mus musculus [41]
  Activity: Active
Mus musculus [42]
  Activity: Active

## COc1cc2c(cc1OC)[C@@H](Cc1ccc(O)c(Oc3cc4c(cc3OC)CCN(C)[C@@H]4Cc3ccc(O)cc3)c1)N(C)CC2
HT-1080 [43]
  Activity: inactive

## COc1ccc(C[C@@H]2c3cc(Oc4cc(C[C@H]5c6cc(OC)c(OC)cc6CCN5C)ccc4O)c(OC)cc3CCN2C)cc1
HT-1080 [43]
  Activity: inactive

## C=CC(C)(C)c1cc(/C=C/C(=O)c2ccc(O)cc2)c(OC)cc1O
HT-1080 [2]
  Activity: Active; Strong Protection
HT-1080 [4]
  Activity: Active
HT-1080 [5]
  Activity: inactive
HT-1080 [6]
  Activity: Active
HT-1080 [9]
  Activity: Active
HT-1080 [12]
  Activity: Active
HT-1080 [13]
  Activity: Active
HT-1080 [16]
  Activity: Active
HT-1080 [18]
  Activity: inactive
HT-1080 [19]
  Activity: inactive
HT-1080 [20]
  Activity: Active
HT-1080 [21]
  Activity: Active
HT-1080 [22]
  Activity: inactive
HT-1080 [24]
  Activity: Active
[29]
  Activity: inactive
HT-1080 [30]
  Activity: Active
HT-1080 [31]
  Activity: Active
HT-1080 [38]
  Activity: Active

## C/C=C/c1ccc(OC(C)=O)c(OC)c1
HT-1080 [2]
  Activity: Active; Strong Protection
HT-1080 [4]
  Activity: Active
HT-1080 [5]
  Activity: inactive
HT-1080 [6]
  Activity: Active
HT-1080 [9]
  Activity: Active
HT-1080 [12]
  Activity: Active
HT-1080 [13]
  Activity: Active
HT-1080 [16]
  Activity: Active
HT-1080 [18]
  Activity: inactive
HT-1080 [19]
  Activity: inactive
HT-1080 [20]
  Activity: Active
HT-1080 [22]
  Activity: inactive
HT-1080 [24]
  Activity: Active
HT-1080 [44]
  Activity: Active
[29]
  Activity: inactive
HT-1080 [30]
  Activity: Active
HT-1080 [31]
  Activity: Active
HT-1080 [38]
  Activity: Active
